Measured values: PMC8983499 (Cancer Research, 2022)

Assays:
Assay type in all cases: in vivo
Nephrotoxicity study = settings: BALB/cJ mice, intravenous, 3 days after drug administration, ELISA, n = 3/group
[1] = Fluorescence imaging of Cy-peptide analogues; settings: SHO mice, tail-vein injection 0.5 nmol, images 1 and 4 hours; in words
Toxicity profile = settings: healthy BALB/cJ mice, intravenous weekly for 3 weeks, DM1 and DM1–Bdd 0.75 mg/kg of drug content, CIS 10 mg/kg

| Molecule | KIM-1 and/or NGAL in urine (Nephrotoxicity study) | elimination and organ uptake by fluorescence imaging [1] | serum biochemical analysis for liver injury and renal function (Toxicity profile) | hematology (blood cell counts and morphologic features) (Toxicity profile; n = 4/group) |
| --- | --- | --- | --- | --- |
| CO[C@@]12[C@H](COC(N)=O)C3=C(C(=O)C(C)=C(N)C3=O)N1C[C@@H]1N[C@@H]12 [MIT, mitomycin] | continued induction |  |  |  |
| Cyanine5.5 [free Cy] |  | mainly taken up by liver and/or other organs |  |  |
| COc1cc2cc(c1Cl)N(C)C(=O)C[C@H](OC(=O)[C@H](C)N(C)C(=O)CCS)[C@]1(C)O[C@H]1[C@H](C)[C@@H]1C[C@@](O)(NC(=O)O1)[C@H](OC)/C=C/C=C(\C)C2 [DM1, N2'-deacetyl-N2'-(3-mercapto-1-oxopropyl)-maytansine] | continued induction |  | induced hepatic and renal toxicity | reticulocytosis without apparent anemia |
| Nc1ccn([C@@H]2O[C@H](CO)[C@@H](O)C2(F)F)c(=O)n1 [GEM, gemcitabine] | continued induction |  |  |  |
